Measurements from ChEMBL document CHEMBL1201862, “PubChem BioAssay data set” (2004).
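Briefly, cells in 96-well plates were exposed to five compound concentrations for 48 h, and endpoints were estimated by linear interpolation. Abbreviation: GI50, concentration required for 50% inhibition of growth.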 Active and inactive are the calls of the source. Rule as the data show it: active = GI50 up to about 1.1 µM and inactive = higher.

Experiments:
Experiment in all cases: inhibition of tumour cell growth, NCI panel, 48 h
HCT-15 = test system: HCT-15
KM12 = test system: KM12
Malme-3M = test system: Malme-3M
M14 = test system: M14
LOX IMVI = test system: LOX IMVI
HOP-92 = test system: HOP-92
NCI-H23 = test system: NCI-H23
A498 = test system: A498
COLO 205 = test system: COLO 205
786-0 = test system: 786-0
ACHN = test system: ACHN
NCI-H226 = test system: NCI-H226
T47D = test system: T47D
A549 = test system: A549
NCI-H522 = test system: NCI-H522
UACC-62 = test system: UACC-62
SK-OV-3 = test system: SK-OV-3
HOP-62 = test system: HOP-62
SF-268 = test system: SF-268

SMILES | GI50 (HCT-15) | GI50 (KM12) | GI50 (Malme-3M) | GI50 (M14) | GI50 (LOX IMVI) | GI50 (HOP-92) | GI50 (NCI-H23) | GI50 (A498) | GI50 (COLO 205) | GI50 (786-0) | GI50 (ACHN) | GI50 (NCI-H226) | GI50 (T47D) | GI50 (A549) | GI50 (NCI-H522) | GI50 (UACC-62) | GI50 (SK-OV-3) | GI50 (HOP-62) | GI50 (SF-268)
CCN(CC)CCOC(=O)CCN1CC2CCC(CC2)C1 | > 100 µM | > 100 µM (inactive) | > 100 µM (inactive) | > 100 µM (inactive) | > 100 µM (inactive) | > 100 µM (inactive) | > 100 µM (inactive) | > 100 µM (inactive) | > 100 µM (inactive) | > 100 µM (inactive) | > 100 µM (inactive) | > 100 µM (inactive) | > 100 µM (inactive) | > 100 µM (inactive) | > 100 µM (inactive) | > 100 µM (inactive) | > 100 µM (inactive) | – | –
CCOC(=O)/C=C/[C@H](O[Si](c1ccccc1)(c1ccccc1)c1ccccc1)C(C)(C)C | > 31.6 µM | 15.8 µM (inactive) | > 31.6 µM (inactive) | 73.8 µM (inactive) | > 31.6 µM (inactive) | > 31.6 µM (inactive) | > 31.6 µM (inactive) | > 31.6 µM (inactive) | > 31.6 µM (inactive) | > 31.6 µM (inactive) | > 31.6 µM (inactive) | > 31.6 µM (inactive) | 11.5 µM (inactive) | 23.3 µM (inactive) | > 31.5 µM (inactive) | > 31.6 µM (inactive) | > 31.6 µM (inactive) | > 31.6 µM (inactive) | > 31.6 µM (inactive)
NC1=NN(c2ccccc2)C2(c3ccncc3C(=O)O)C1C(N)=NN2c1ccccc1 (configuration not stated) | > 100 µM | > 100 µM (inactive) | > 100 µM (inactive) | > 100 µM (inactive) | > 100 µM (inactive) | > 100 µM (inactive) | > 100 µM (inactive) | > 100 µM (inactive) | > 100 µM (inactive) | > 100 µM (inactive) | > 100 µM (inactive) | > 100 µM (inactive) | > 100 µM (inactive) | > 100 µM (inactive) | > 100 µM (inactive) | > 100 µM (inactive) | > 100 µM (inactive) | – | > 100 µM (inactive)
Cc1cnc(Cl)nc1C(C#N)c1nc2ccccc2n1C (configuration not stated) | > 100 µM | > 100 µM (inactive) | > 100 µM (inactive) | > 100 µM (inactive) | 34.1 µM (inactive) | > 100 µM (inactive) | 66.7 µM (inactive) | > 100 µM (inactive) | > 100 µM (inactive) | 44.4 µM (inactive) | 66.8 µM (inactive) | > 100 µM (inactive) | 84.9 µM (inactive) | 62.5 µM (inactive) | 15.1 µM (inactive) | – | > 100 µM (inactive) | 55.7 µM (inactive) | 29.9 µM (inactive)
CCOC(=O)CCc1cc(=O)oc2cc(O)cc(O)c12 | > 100 µM | > 100 µM (inactive) | > 100 µM (inactive) | > 100 µM (inactive) | > 100 µM (inactive) | > 100 µM (inactive) | > 100 µM (inactive) | 50.1 µM (inactive) | > 100 µM (inactive) | > 100 µM (inactive) | > 100 µM (inactive) | > 100 µM (inactive) | > 100 µM (inactive) | > 100 µM (inactive) | > 100 µM (inactive) | > 100 µM (inactive) | > 100 µM (inactive) | > 100 µM (inactive) | > 100 µM (inactive)
Cc1ccc(NC(=O)CSC(N)=O)cc1C | > 100 µM | > 100 µM (inactive) | > 100 µM (inactive) | 40.8 µM (inactive) | 37.9 µM (inactive) | > 100 µM (inactive) | > 100 µM (inactive) | 98.4 µM (inactive) | > 100 µM (inactive) | 48.2 µM (inactive) | > 100 µM (inactive) | > 100 µM (inactive) | > 100 µM (inactive) | > 100 µM (inactive) | 89.9 µM (inactive) | 93.8 µM (inactive) | – | > 100 µM (inactive) | > 100 µM (inactive)
O=C(Oc1c(Cl)cc(C2(c3cc(Cl)c(OC(=O)c4ccccc4)c(Cl)c3)CCCCC2)cc1Cl)c1ccccc1 | 11.9 µM | 5.08 µM (inactive) | – | 14.5 µM (inactive) | 14.2 µM (inactive) | 8.45 µM (inactive) | 10.4 µM (inactive) | 11.4 µM (inactive) | 5.78 µM (inactive) | 14.1 µM (inactive) | 5.15 µM (inactive) | 16.3 µM (inactive) | 11 µM (inactive) | 12.3 µM (inactive) | 13.7 µM (inactive) | 10.5 µM (inactive) | 15.5 µM (inactive) | 12.4 µM (inactive) | 12.6 µM (inactive)
CC1(C)C/C=C\CCC(O)C(O)CCC(C)(C)C1=O (configuration not stated) | > 100 µM | > 100 µM (inactive) | > 100 µM (inactive) | – | > 100 µM (inactive) | > 100 µM (inactive) | > 100 µM (inactive) | > 100 µM (inactive) | > 100 µM (inactive) | > 100 µM (inactive) | > 100 µM (inactive) | > 100 µM (inactive) | > 100 µM (inactive) | > 100 µM (inactive) | 62.2 µM (inactive) | > 100 µM (inactive) | > 100 µM (inactive) | > 100 µM (inactive) | > 100 µM (inactive)
CCN(CC)c1ccc(/C=C/C2=NN(c3cccc(S(=O)(=O)O)c3)C3(C2)C(Cl)C(=O)N3c2nc3ccccc3s2)cc1 (configuration not stated) | 7.03 µM | 7.83 µM (inactive) | 11.1 µM (inactive) | 12.4 µM (inactive) | 2.82 µM (inactive) | 6.73 µM (inactive) | 7.01 µM (inactive) | 12 µM (inactive) | 14.1 µM (inactive) | 5.65 µM (inactive) | 10.9 µM (inactive) | 13.1 µM (inactive) | 3.06 µM (inactive) | 11.2 µM (inactive) | 1.72 µM (inactive) | 7.91 µM (inactive) | 12.4 µM (inactive) | 7.36 µM (inactive) | 16.8 µM (inactive)
CCN(CC)CC(O)c1ccc2ccc3ccccc3c2c1 (configuration not stated) | 16.3 µM | 15.4 µM (inactive) | 16.9 µM (inactive) | 16.3 µM (inactive) | 17.9 µM (inactive) | 14.2 µM (inactive) | 16.9 µM (inactive) | 12.6 µM (inactive) | 13.9 µM (inactive) | 12.9 µM (inactive) | 14.3 µM (inactive) | 13.6 µM (inactive) | 20 µM (inactive) | 15.7 µM (inactive) | 15.6 µM (inactive) | 15.3 µM (inactive) | 16 µM (inactive) | 16.1 µM (inactive) | 17.8 µM (inactive)
COc1cc2c(cc1OCCCN1C(=O)c3cccc4cccc(c34)C1=O)N=C[C@@H]1CCCN1C2=O | 23.1 µM | 16.3 µM (inactive) | 19.5 µM (inactive) | 36.2 µM (inactive) | 33.9 µM (inactive) | 22.2 µM (inactive) | 34 µM (inactive) | > 100 µM (inactive) | 18.5 µM (inactive) | 21 µM (inactive) | 25.7 µM (inactive) | 34.4 µM (inactive) | 19.5 µM (inactive) | > 100 µM (inactive) | 14.3 µM (inactive) | > 62.7 µM (inactive) | > 100 µM (inactive) | > 86.7 µM (inactive) | 39.6 µM (inactive)
